Measured values: ChEMBL document CHEMBL1201862, “PubChem BioAssay data set” (2004)
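48-hour exposure; five concentrations; linearly interpolated endpoints. At the GI50, growth is halved.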 Active and inactive are the calls of the source. No stated cut-off is given here; in the data, active = GI50 up to about 1.1 µM and inactive = higher.

Legend:
Assay in all cases: growth of human tumour cells (NCI), 48 h
DMS-114 = system: DMS-114
DMS-273 = system: DMS-273
KM-20L2 = system: KM-20L2
LXFL 529 = system: LXFL 529
M19-MEL = system: M19-MEL
RXF 631 = system: RXF 631
SNB-78 = system: SNB-78
XF498 = system: XF498
HOP-18 = system: HOP-18

Compound	GI50 (DMS-114)	GI50 (DMS-273)	GI50 (KM-20L2)	GI50 (LXFL 529)	GI50 (M19-MEL)	GI50 (RXF 631)	GI50 (SNB-78)	GI50 (XF498)	GI50 (HOP-18)
CC1=C(CO)C(=O)OC(C(C)C2CCC3C4CC5OC56C(O)C(N5CC5)=CC(=O)C6(C)C4CCC23C)C1 (stereo not drawn)	2.13 µM (inactive)	5.65 µM (inactive)	3.05 µM (inactive)	4.32 µM (inactive)	11.4 µM (inactive)	11.5 µM (inactive)	5.61 µM (inactive)	5.3 µM (inactive)	
CCOC(=O)C1(C)CCC(C(C(=O)O)C(=O)O)CC1=O (stereo not drawn)	> 100 µM (inactive)	> 100 µM (inactive)	> 100 µM (inactive)	> 100 µM (inactive)	> 100 µM (inactive)	> 100 µM (inactive)	> 100 µM (inactive)		> 100 µM (inactive)
COc1ccc2c(c1)CC1c3c(ccc(OC)c3O)CC2N1C (stereo not drawn)	19.7 µM (inactive)	22.4 µM (inactive)	28.4 µM (inactive)	18.3 µM (inactive)	23 µM (inactive)	22.6 µM (inactive)	24.3 µM (inactive)	21.3 µM (inactive)	71.1 µM (inactive)
O=C(CC1(O)C(=O)Nc2c(Cl)cc(Cl)cc21)c1ccc2ccccc2c1 (stereo not drawn)	4.69 µM (inactive)	3.72 µM (inactive)	3.56 µM (inactive)	9.16 µM (inactive)	4.49 µM (inactive)	7.08 µM (inactive)	16.8 µM (inactive)	11.6 µM (inactive)	13.3 µM (inactive)
CCOC(=O)NC(=O)c1c[nH]c(=O)[nH]c1=O	> 100 µM (inactive)	> 100 µM (inactive)	> 100 µM (inactive)	> 100 µM (inactive)	> 100 µM (inactive)	> 100 µM (inactive)	> 100 µM (inactive)	> 100 µM (inactive)	> 100 µM (inactive)
CCOC(=O)C(=O)C(C#N)c1ccc(Cl)cc1 (stereo not drawn)	> 100 µM (inactive)	> 100 µM (inactive)	> 100 µM (inactive)	> 100 µM (inactive)	> 100 µM (inactive)		> 100 µM (inactive)	> 100 µM (inactive)	
N#Cc1cccc(/C=N/N/C(N)=N/O)c1		> 100 µM (inactive)		39.4 µM (inactive)	> 100 µM (inactive)		> 100 µM (inactive)	23.8 µM (inactive)	15.7 µM (inactive)
CCCCN(CCCC)c1c([N+](=O)[O-])c(=O)nc2ccccn12	21.7 µM (inactive)		27.4 µM (inactive)	33 µM (inactive)	8.67 µM (inactive)	23.4 µM (inactive)	48.2 µM (inactive)	32.2 µM (inactive)	
Cc1cccc(NC(=O)c2c(N)[n+]([O-])c3ccccc3[n+]2[O-])c1		9.51 µM (inactive)	16.6 µM (inactive)	11 µM (inactive)	8.97 µM (inactive)	1.77 µM (inactive)	11.9 µM (inactive)	11.4 µM (inactive)	18.2 µM (inactive)
CC[C@H](C)[C@H]1NC(=O)C(C(C)=O)=C1O	76.7 µM (inactive)	> 100 µM (inactive)	> 100 µM (inactive)	66.5 µM (inactive)	71.3 µM (inactive)	92.5 µM (inactive)	> 100 µM (inactive)	> 100 µM (inactive)	58.1 µM (inactive)
COc1ccc(C2Oc3cc(OC)c(OC)cc3C2CCl)cc1OC (stereo not drawn)	> 100 µM (inactive)	> 100 µM (inactive)	> 100 µM (inactive)	> 100 µM (inactive)	> 100 µM (inactive)			> 100 µM (inactive)	
Cc1ccc(-c2cc(-c3ccccc3)c(C#N)c(=O)n2C2OC(CO)C(O)C(O)C2O)cc1 (stereo not drawn)	> 100 µM (inactive)	> 100 µM (inactive)	> 100 µM (inactive)	> 100 µM (inactive)	> 100 µM (inactive)	> 100 µM (inactive)	> 100 µM (inactive)		> 100 µM (inactive)
CC(=O)NC1=C(NCc2ccc(Cl)cc2)C(=O)c2ccccc2C1=O		7.67 µM (inactive)	24.3 µM (inactive)	6.55 µM (inactive)	5.27 µM (inactive)		11 µM (inactive)	1.44 µM (inactive)	
COc1cc2ccc(CC#N)cc2cc1OC	> 100 µM (inactive)	> 100 µM (inactive)	> 100 µM (inactive)	> 100 µM (inactive)	> 100 µM (inactive)	> 100 µM (inactive)	> 100 µM (inactive)	> 100 µM (inactive)	
CN(CC#N)C1CCCC[C@H]1O (stereo partly drawn)	> 100 µM (inactive)	> 100 µM (inactive)	> 100 µM (inactive)	> 100 µM (inactive)			> 100 µM (inactive)	> 100 µM (inactive)	> 100 µM (inactive)
NN		132 µM (inactive)	231 µM (inactive)				1190 µM (inactive)		324 µM (inactive)
CC(C)N(C(=O)c1cccc(C(=O)N(C(C)C)C(C)C)c1)C(C)C	> 100 µM (inactive)	> 100 µM (inactive)	> 100 µM (inactive)	> 100 µM (inactive)	> 100 µM (inactive)	> 100 µM (inactive)	> 100 µM (inactive)	> 100 µM (inactive)	> 100 µM (inactive)
COc1ccc(O)c(C#N)c1C#N.COc1ccc(OC)c(C#N)c1C#N		> 100 µM (inactive)	> 100 µM (inactive)		> 100 µM (inactive)		> 100 µM (inactive)	> 100 µM (inactive)	
O=[N+]([O-])c1ccc(NC2OCC(O)C(O)C2O)cc1 (stereo not drawn)	> 100 µM (inactive)	> 100 µM (inactive)	> 100 µM (inactive)	> 100 µM (inactive)		> 100 µM (inactive)	> 100 µM (inactive)	> 100 µM (inactive)	
N=C(N)NS(=O)(=O)c1ccc(NCCc2c3ccccc3nc3ccccc23)cc1	28.3 µM (inactive)	72.4 µM (inactive)	> 100 µM (inactive)	> 100 µM (inactive)	> 100 µM (inactive)	35.5 µM (inactive)			
CC(C)Cc1ccc(C(C)/C=C2\CCC(CN3CCCC3)C2=O)cc1 (stereo not drawn)	3.8 µM (inactive)	4.5 µM (inactive)	14.4 µM (inactive)	2.15 µM (inactive)	3.84 µM (inactive)	20.2 µM (inactive)	19.4 µM (inactive)	8.73 µM (inactive)	19.2 µM (inactive)
N#Cc1c2nc3ccccc3nc2n2ccc3ccccc3c12	> 100 µM (inactive)	> 100 µM (inactive)		> 100 µM (inactive)	> 100 µM (inactive)		> 100 µM (inactive)		> 100 µM (inactive)
CCOc1ccc2nc(NC(=O)c3c/c(=N\NC(=O)C[N+](C)(C)C)c4ccc(O)cc4o3)sc2c1	1.91 µM (inactive)	3.34 µM (inactive)	3.21 µM (inactive)	2.02 µM (inactive)	0.294 µM (active)	6.03 µM (inactive)	5 µM (inactive)	2.83 µM (inactive)	2.06 µM (inactive)
CCOC(=O)CC(=O)ON(C)C(C)=O	> 100 µM (inactive)		> 100 µM (inactive)	> 100 µM (inactive)	> 100 µM (inactive)		> 100 µM (inactive)	> 100 µM (inactive)	
CCC12CCCN(Cc3ccccc3)C1c1c(n(C)c3ccccc13)C(CO)C2 (stereo not drawn)	37.8 µM (inactive)	46.5 µM (inactive)	29.3 µM (inactive)	41 µM (inactive)	59 µM (inactive)	56 µM (inactive)		43.3 µM (inactive)	
